Here are results for 41 compounds from US9221827B2, “Antimicrobial compounds and methods of making and using the same” (Melinta Therapeutics, Inc., priority 2011, dated 2015).

Molecules are shown by their SMILES.

For this assay, the system named is Escherichia coli strain ATCC25922. Briefly: standard microdilution assay to determine minimum inhibitory concentrations (MICs). The format is cell-based. The following applies: Escherichia coli strain ATCC25922, microdilution. Summed up:
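Broth microdilution per CLSI (M7-A8/M100-S20), 100 μl final volume, with reference-strain quality control; MIC is the lowest inhibitory concentration. Scored "+"/"−" against a 16 micrograms/ml cutoff, "N/A" where unavailable.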
On to `N=C(N)NCCCNCc1ccc(-n2cc3cc(-c4cc(CCCCN)cc(CN)c4C(F)(F)F)[nH]c3nc2=O)cc1` [Compound 250], for which the “E. coli ATCC25922 MIC” value is reported as “+ (a “+” indicates that the compound has an MIC value of 16 micrograms/ml or less)”. As to `CCCOc1cc(CCCCN)cc(-c2cc3cn(-c4ccc(CNCCCNC(=N)N)cc4)c(=O)nc3[nH]2)c1C(F)(F)F` [Compound 251], the “E. coli ATCC25922 MIC” value is “+ (a “+” indicates that the compound has an MIC value of 16 micrograms/ml or less)”. The value for `N=C(N)NCCCNCc1ccc(-n2cc3cc(-c4cc(CC(O)CCN)cc(OC(F)(F)F)c4)[nH]c3nc2=O)cc1` (centres unmarked) [Compound 252] was “+ (a “+” indicates that the compound has an MIC value of 16 micrograms/ml or less)”. The entry for `N=C(N)NCCCNCc1ccc(-n2cc3cc(-c4cc(CCC5(CN)CCC5)cc(Cl)c4F)[nH]c3nc2=O)cc1` [Compound 253] is “+ (a “+” indicates that the compound has an MIC value of 16 micrograms/ml or less)”; for `N=C(N)NCCCNCc1ccc(-n2cc3cc(-c4cc(CCC(O)CN)cc(Cl)c4F)[nH]c3nc2=O)cc1` (centres unmarked) [Compound 254] it is “+ (a “+” indicates that the compound has an MIC value of 16 micrograms/ml or less)”. The entry for `CC(C)(N)CCc1cc(OC(F)(F)F)cc(-c2cc3cn(-c4ccc(CNCCCNC(=N)N)cc4)c(=O)nc3[nH]2)c1` [Compound 255] is “+ (a “+” indicates that the compound has an MIC value of 16 micrograms/ml or less)”; for `CC(CN)Cc1cc(Cl)c(F)c(-c2cc3cn(-c4ccc(CNCCCNC(=N)N)cc4)c(=O)nc3[nH]2)c1` (centres unmarked) [Compound 256] it is “+ (a “+” indicates that the compound has an MIC value of 16 micrograms/ml or less)”.

Regarding `CC(N)CCc1cc(Cl)c(F)c(-c2cc3cn(-c4ccc(CNCCCNC(=N)N)cc4)c(=O)nc3[nH]2)c1` (centres unmarked) [Compound 257], the “E. coli ATCC25922 MIC” value is listed as “+ (a “+” indicates that the compound has an MIC value of 16 micrograms/ml or less)”. The entry for `N=C(N)NCCCNCc1ccc(-n2cc3cc(-c4cc(CCC(O)CN)ccc4F)[nH]c3nc2=O)cc1` (centres unmarked) [Compound 258] is “+ (a “+” indicates that the compound has an MIC value of 16 micrograms/ml or less)”. In the case of `CC(C)(N)CCc1cc(-c2cc3cn(-c4ccc(CNCCCNC(=N)N)cc4)c(=O)nc3[nH]2)cc(C(F)(F)F)c1` [Compound 259], the “E. coli ATCC25922 MIC” value is “+ (a “+” indicates that the compound has an MIC value of 16 micrograms/ml or less)”.

In the case of `CC(N)CCc1cc(OC(F)(F)F)cc(-c2cc3cn(-c4ccc(CNCCCNC(=N)N)cc4)c(=O)nc3[nH]2)c1` (centres unmarked) [Compound 260], the “E. coli ATCC25922 MIC” value is on record as “+ (a “+” indicates that the compound has an MIC value of 16 micrograms/ml or less)”. The value for `CC(C)c1cc(CCC[C@H](C)N)cc(-c2cc3cn(-c4ccc(CNCCCNC(=N)N)cc4)c(=O)nc3[nH]2)c1Cl` [Compound 261] was “+ (a “+” indicates that the compound has an MIC value of 16 micrograms/ml or less)”; that for `CSc1cc(CCCCN)cc(-c2cc3cn(-c4ccc(CNCCCNC(=N)N)cc4)c(=O)nc3[nH]2)c1C(F)(F)F` [Compound 262] was “+ (a “+” indicates that the compound has an MIC value of 16 micrograms/ml or less)”. For the compound `C[C@H](NCCCNC(=N)N)c1ccc(-n2cc3cc(-c4cc(CCCC(C)(C)N)cc(OC(F)(F)F)c4)[nH]c3nc2=O)cc1` [Compound 264], the “E. coli ATCC25922 MIC” value is on record as “+ (a “+” indicates that the compound has an MIC value of 16 micrograms/ml or less)”. The value for `COc1cc(CCCCN)cc(-c2cc3cn(-c4ccc(CNCCCNC(=N)N)cc4)c(=O)nc3[nH]2)c1C(F)(F)F` [Compound 265] was “+ (a “+” indicates that the compound has an MIC value of 16 micrograms/ml or less)”. The entry for `CC(N)CCCc1cc(CCl)cc(-c2cc3cn(-c4ccc(CNCCCNC(=N)N)cc4)c(=O)nc3[nH]2)c1` (centres unmarked) [Compound 266] is “+ (a “+” indicates that the compound has an MIC value of 16 micrograms/ml or less)”; for `N=C(N)NCCCNCc1ccc(-n2cc3cc(-c4cc(Cl)c(F)c(CCCCN)c4)[nH]c3nc2=O)cc1` [Compound 267] it is “+ (a “+” indicates that the compound has an MIC value of 16 micrograms/ml or less)”. The value for `CC(N)CCCc1cc(Cl)c(F)c(-c2cc3cn(-c4ccc(CNCCCNC(=N)N)cc4)c(=O)nc3[nH]2)c1` (centres unmarked) [Compound 268] was “+ (a “+” indicates that the compound has an MIC value of 16 micrograms/ml or less)”; that for `CC(N)CCCc1cc(Cl)c(F)c(-c2cc3cn(-c4ccc(C(C)NCCCNC(=N)N)cc4)c(=O)nc3[nH]2)c1` (centres unmarked) [Compound 269] was “+ (a “+” indicates that the compound has an MIC value of 16 micrograms/ml or less)”. As to `CC(NCCCNC(=N)N)c1ccc(-n2cc3cc(-c4cc(CCC5(CN)CC5)cc(Cl)c4F)[nH]c3nc2=O)cc1` (centres unmarked) [Compound 272], the “E. coli ATCC25922 MIC” value is “+ (a “+” indicates that the compound has an MIC value of 16 micrograms/ml or less)”. The entry for `CC(N)CCCc1cc(-c2cc3cn(-c4ccc(C(C)NCCCNC(=N)N)cc4)c(=O)nc3[nH]2)c(F)c(C(F)(F)F)c1` (centres unmarked) [Compound 274] is “+ (a “+” indicates that the compound has an MIC value of 16 micrograms/ml or less)”; for `CC(N)CCCc1cc(-c2cc3cn(-c4ccc(CNCCCNC(=N)N)cc4)c(=O)nc3[nH]2)c(F)c(C(F)(F)F)c1` (centres unmarked) [Compound 275] it is “+ (a “+” indicates that the compound has an MIC value of 16 micrograms/ml or less)”; for `CC(CCCc1cc(-c2cc3cn(-c4ccc(C(C)NCCCNC(=N)N)cc4)c(=O)nc3[nH]2)cc(C(F)(F)F)c1)NC(=N)N` (centres unmarked) [Compound 276] it is “+ (a “+” indicates that the compound has an MIC value of 16 micrograms/ml or less)”. The value for `CC(N)CCc1cc(Cl)c(F)c(-c2cc3cn(-c4ccc(CNCCCNC(=N)N)cc4)c(=O)nc3[nH]2)c1` (centres unmarked) [Compound 278] was “+ (a “+” indicates that the compound has an MIC value of 16 micrograms/ml or less)”; that for `CC(CN)Cc1cc(-c2cc3cn(-c4ccc(CNCCCNC(=N)N)cc4)c(=O)nc3[nH]2)c(F)c(C(F)(F)F)c1` (centres unmarked) [Compound 280] was “+ (a “+” indicates that the compound has an MIC value of 16 micrograms/ml or less)”. Take `CC(N)CCCc1cc(OC(F)(F)F)c(Cl)c(-c2cc3cn(-c4ccc(CNCCCNC(=N)N)cc4)c(=O)nc3[nH]2)c1` (centres unmarked) [Compound 281]: the “E. coli ATCC25922 MIC” value is recorded as “+ (a “+” indicates that the compound has an MIC value of 16 micrograms/ml or less)”.

For `CC(N)CCCc1cc(OC(F)(F)F)c(Cl)c(-c2cc3cn(-c4ccc(C(C)NCCCNC(=N)N)cc4)c(=O)nc3[nH]2)c1` (centres unmarked) [Compound 282], the “E. coli ATCC25922 MIC” value is given as “+ (a “+” indicates that the compound has an MIC value of 16 micrograms/ml or less)”. Turning to `CCc1cc(CCCC(C)N)cc(-c2cc3cn(-c4ccc(CNCCCNC(=N)N)cc4)c(=O)nc3[nH]2)c1Cl` (centres unmarked) [Compound 283], the “E. coli ATCC25922 MIC” value is recorded as “+ (a “+” indicates that the compound has an MIC value of 16 micrograms/ml or less)”. The entry for `CCc1cc(CCCC(C)NC(=N)N)cc(-c2cc3cn(-c4ccc(CNCCCNC(=N)N)cc4)c(=O)nc3[nH]2)c1Cl` (centres unmarked) [Compound 284] is “+ (a “+” indicates that the compound has an MIC value of 16 micrograms/ml or less)”; for `CCc1cc(CCCCNC(=N)N)cc(-c2cc3cn(-c4ccc(CNCCCNC(=N)N)cc4)c(=O)nc3[nH]2)c1Cl` [Compound 285] it is “+ (a “+” indicates that the compound has an MIC value of 16 micrograms/ml or less)”; for `CC(N)CCCc1cc(OC(F)(F)F)c(F)c(-c2cc3cn(-c4ccc(CNCCCNC(=N)N)cc4)c(=O)nc3[nH]2)c1` (centres unmarked) [Compound 286] it is “+ (a “+” indicates that the compound has an MIC value of 16 micrograms/ml or less)”. For `CNC(C)CCCc1cc(-c2cc3cn(-c4ccc(CNCCCNC(=N)N)cc4)c(=O)nc3[nH]2)cc(C(F)(F)F)c1` (centres unmarked) [Compound 287], the “E. coli ATCC25922 MIC” value is reported as “+ (a “+” indicates that the compound has an MIC value of 16 micrograms/ml or less)”. As to `CC(N)CCCc1cc(SC(F)(F)F)c(Cl)c(-c2cc3cn(-c4ccc(CNCCCNC(=N)N)cc4)c(=O)nc3[nH]2)c1` (centres unmarked) [Compound 288], the “E. coli ATCC25922 MIC” value is on record as “+ (a “+” indicates that the compound has an MIC value of 16 micrograms/ml or less)”.

On to `CC(N)CCCc1cc(SC(F)(F)F)c(Cl)c(-c2cc3cn(-c4ccc(C(C)NCCCNC(=N)N)cc4)c(=O)nc3[nH]2)c1` (centres unmarked) [Compound 289], for which the “E. coli ATCC25922 MIC” value is “+ (a “+” indicates that the compound has an MIC value of 16 micrograms/ml or less)”. Consider `CNC(C)CCCc1cc(-c2cc3cn(-c4ccc(C(C)NCCCNC(=N)N)cc4)c(=O)nc3[nH]2)cc(C(F)(F)F)c1` (centres unmarked) [Compound 290], for which the “E. coli ATCC25922 MIC” value is reported as “+ (a “+” indicates that the compound has an MIC value of 16 micrograms/ml or less)”. `CNC(C)CCCc1cc(Cl)c(F)c(-c2cc3cn(-c4ccc(CNCCCNC(=N)N)cc4)c(=O)nc3[nH]2)c1` (centres unmarked) [Compound 292]: the “E. coli ATCC25922 MIC” value is on record as “+ (a “+” indicates that the compound has an MIC value of 16 micrograms/ml or less)”. Turning to `N=C(N)NCCCNCc1ccc(-n2cc3cc(-c4cc(CCCCN)cc(C(F)(F)F)c4C(F)(F)F)[nH]c3nc2=O)cc1` [Compound 293], the “E. coli ATCC25922 MIC” value is on record as “+ (a “+” indicates that the compound has an MIC value of 16 micrograms/ml or less)”.

Consider `CNC(C)CCCc1cc(SC(F)(F)F)cc(-c2cc3cn(-c4ccc(CNCCCNC(=N)N)cc4)c(=O)nc3[nH]2)c1` (centres unmarked) [Compound 294], for which the “E. coli ATCC25922 MIC” value was “+ (a “+” indicates that the compound has an MIC value of 16 micrograms/ml or less)”. The entry for `CC(C)(N)CCCc1cc(Cl)c(F)c(-c2cc3cn(-c4ccc(CNCCCNC(=N)N)cc4)c(=O)nc3[nH]2)c1` [Compound 295] is “+ (a “+” indicates that the compound has an MIC value of 16 micrograms/ml or less)”; for `C[C@H](NCCCNC(=N)N)c1ccc(-n2cc3cc(-c4cc(CCCC(C)(C)N)cc(Cl)c4F)[nH]c3nc2=O)cc1` [Compound 296] it is “+ (a “+” indicates that the compound has an MIC value of 16 micrograms/ml or less)”; for `CC(N)CCCc1cc(OC(F)F)c(F)c(-c2cc3cn(-c4ccc(CNCCCNC(=N)N)cc4)c(=O)nc3[nH]2)c1` (centres unmarked) [Compound 297] it is “+ (a “+” indicates that the compound has an MIC value of 16 micrograms/ml or less)”.
